Each structure is given as a SMILES string. Calls of active or inactive are those of the source. No rule for the calls is given here. Bounds are passed on as bounds.

Tested on in one experiment: not listed separately
The experiment is described as follows: blockers of VCAM1 upregulation by TNFa – imaging, TNFa stimulus, retest and dose response, confirmation (AID 1013).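 As to cell count: compound on cells 1 h before TNFa then 24 h more.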 The following applies: TNFa-stimulated cells, VCAM1 expression imaging; at 2 µM; stronger effect = higher value.
`CCNc1nc(NCC)n2c(SCc3ccc(F)cc3)nnc2n1`: the inhibition was -6.3% (inactive).

`N=C1C(c2nc3ccccc3s2)=C(O)CN1Cc1ccco1`: the inhibition was -3% (inactive).

Consider `CCCOC(=O)C1C2C=C[C@]3(CN(CCc4ccccc4)C(=O)[C@H]13)O2` (stereo partly specified), for which the inhibition is 4.5% (inactive).

Take `CCOc1ccc(N2C(=O)CSC2c2ccncc2)cc1` (stereo unspecified): the inhibition is 0% (inactive).

With `CCOC(=O)c1ccc(-n2c(=S)sc3c(=O)[nH]c(C)nc32)cc1`, the inhibition is -10.7% (inactive).

Turning to `O=C(O)Cc1ccc(NC(=O)C2CC=CCC2C(=O)O)cc1` (stereo unspecified), the inhibition is 4.4% (inactive).

`S=c1[nH]nc(COc2ccc3c(c2)OCO3)n1-c1ccccc1`: the inhibition is 1% (inactive).

On to `CCCOc1ccc(/C(O)=C2/C(=O)C(=O)N(CCOC)C2c2cccnc2)cc1` (stereo unspecified), for which the inhibition was 8.7% (inactive).

On to `CN(CC(=O)NCc1ccncc1)S(=O)(=O)c1ccc(F)cc1`, for which the inhibition is 0.2% (inactive).

As to `Cn1nc(C(=O)OCC(=O)N2CCc3ccccc32)c2ccccc2c1=O`, the inhibition is 4.8% (inactive).

Take `O=[N+]([O-])c1cnccc1Nc1ccc(F)cc1`: the inhibition was 15.4% (inactive).

`CN1CCCCc2c1[nH]c1ccccc1c2=O`: the inhibition is 5.5% (inactive).

`COc1ccc(OC)c(C2CC(=O)c3c([nH]c(C(=O)OC(C)C)c3C)C2)c1` (stereo unspecified): the inhibition was 35.5% (inactive).

Regarding `Cc1oc2cc3c(C(=O)N4CCCCC4)c(C)oc3cc2c1C(=O)N1CCCCC1`, the inhibition is 4.7% (inactive).

Regarding `COc1ccc(-c2cc(C(F)(F)F)nc(S(=O)(=O)CCC(=O)N3CCOCC3)n2)cc1`, the inhibition was 20.8% (inactive).

For `CN1CCc2nc3sc(C#N)c(N)c3c(-c3cccs3)c2C1`, the inhibition is -13.9% (inactive).

For `O=c1ccc(Oc2nc(N3CCOCC3)nc(N3CCOCC3)n2)nn1-c1ccccc1`, the inhibition was 9% (inactive).

Consider `COc1ccc(-c2cc(C(=O)Nc3cc(C)n(Cc4ccc(Cl)cc4)n3)no2)cc1OC`, for which the inhibition is 11.7% (inactive).

As to `CCOC(=O)/C(=C\c1cccnc1)C(=O)c1cc(C(C)=O)c(Nc2ccccc2)s1`, the inhibition is 19.8% (inactive).

With `O=C(CN1CCC(c2nc3ccccc3s2)CC1)NCc1cccs1`, the inhibition was -3.1% (inactive).

As for `CCC(=O)Nc1cccc(C(=O)/C=C/c2cc(Br)ccc2OC)c1`, the inhibition is 10% (inactive).

For `O=c1c(-c2ccc(Br)cc2)coc2c(CN3CCOCC3)c(O)ccc12`, the inhibition was -12.4% (inactive).

Turning to `CO/N=C/C(=N\Nc1ccc(C)cc1)C(=O)c1ccc(OC)cc1`, the inhibition was 29% (inactive).

`O=C(Oc1ccc2ccc(=O)oc2c1)N1CCOCC1`: the inhibition is 1.4% (inactive).

Consider `C[n+]1ccc(/C=C/c2ccc(Br)cc2)cc1`, for which the inhibition was 13.1% (inactive).

Regarding `C=CCOC(=O)C1=C(C)OC(N)=C(C#N)C12C(=O)N(CN1CCOCC1)c1ccccc12` (stereo unspecified), the inhibition was -12.1% (inactive).

On to `CC1Cc2cc(-c3csc(NC(=O)Cc4cccs4)n3)ccc2N1S(C)(=O)=O` (stereo unspecified), for which the inhibition is 0.8% (inactive).

Regarding `CC(=O)c1cccc(S(=O)(=O)N2CCC(n3nnc4cc(F)ccc43)CC2)c1`, the inhibition was 3.2% (inactive).

For `CSCCC(NC(=O)OCc1ccccc1)C(=O)O` (stereo unspecified), the inhibition was 6.7% (inactive).

For the compound `CC1CCN(C(=O)C2c3ccccc3C(=O)N3CCc4ccccc4C23)CC1` (stereo unspecified), the inhibition was 3.6% (inactive).

Consider `OC1(c2cccc(C(F)(F)F)c2)CCN(c2ncnc3c2[nH]c2ccc(F)cc23)CC1`, for which the inhibition was 1% (inactive).

Consider `Cc1ccc(N/N=C/c2ccc(N3CCOCC3)cc2)cc1C`, for which the inhibition was -4.8% (inactive).

For the compound `CCn1c(SCC(=O)NC(C)c2ccccc2)nc2ccccc21` (stereo unspecified), the inhibition is -13.3% (inactive).

As to `CCC1=NC(c2ccccc2Cl)N(O)C1(C)C` (stereo unspecified), the inhibition is 5.5% (inactive).

For `COC(=O)c1[nH]c2cc(OC)ccc2c1NC(=O)CN1CCC(C(N)=O)(N2CCCCC2)CC1`, the inhibition is -3.9% (inactive).

In the case of `CCN(CC)S(=O)(=O)c1ccc(NC(=O)C(C)N(c2ccc(OC)cc2)S(C)(=O)=O)cc1` (stereo unspecified), the inhibition is -3.6% (inactive).

`Cc1cc(C)cc(OCC(=O)Nc2nonc2NC(=O)COc2cc(C)cc(C)c2)c1`: the inhibition was 12.1% (inactive).

`CN1C(=O)C2(NCCc3c2[nH]c2ccccc32)c2ccccc21` (stereo unspecified): the inhibition was -19.9% (inactive).

For the compound `CCCCC(=O)NC(=S)Nc1ccccc1C(=O)Nc1ccccc1`, the inhibition was -2.5% (inactive).

In the case of `CC(C)NC1CS(=O)(=O)CC1O` (stereo unspecified), the inhibition was -13.7% (inactive).

With `CCOC(=O)N1CCN(C(=O)c2ccc3c(c2)NC(=O)C(N2CCOCC2)S3)CC1` (stereo unspecified), the inhibition was 2.1% (inactive).

As to `C=CCCCOc1ccc(C(=O)O)cc1`, the inhibition is 8.3% (inactive).

`CSc1nnc2n(-c3ccccc3)c(=O)c3c4c(sc3n12)CCC4`: the inhibition is -8.1% (inactive).

Take `O=C(N/N=C/c1ccncc1)c1ccccc1`: the inhibition is 5.8% (inactive).

Regarding `O=C(Nc1ccccc1)c1nnsc1S(=O)(=O)c1ccc(Cl)cc1`, the inhibition is 20.4% (inactive).

For `O=C(CN1CCSCC1)N1CCc2[nH]c3ccc(Br)cc3c2C1`, the inhibition was -11.1% (inactive).

Consider `Cc1ccc(C(=O)CSc2nnc(COc3ccc(C#N)cc3)n2-c2ccccc2)cc1`, for which the inhibition is -0.7% (inactive).

As for `COC(=O)CSc1nc2nc(C)c(Br)cc2[nH]1`, the inhibition is -12.6% (inactive).

As to `O=C(O)C1CCC(N2C(=O)C3CCCCC3C2=O)CC1` (stereo unspecified), the inhibition was 12.7% (inactive).

In the case of `O=C(Nc1ccccc1)/C(=C\c1ccc2c(c1)OCO2)NC(=O)c1ccco1`, the inhibition is -3% (inactive).

As to `CCOC(=O)c1ccc(NS(=O)C23CC4CC(CC(C4)C2)C3)cc1` (stereo unspecified), the inhibition was -13.9% (inactive).

With `O=C(NCCO)C(c1ccccc1)c1ccccc1`, the inhibition is -14.4% (inactive).

For the compound `Cc1ccc(Nc2nc(CSc3nnnn3C)cs2)cc1`, the inhibition is -5.5% (inactive).

With `C=C1N2CCC(CC2)C1(O)c1ccccc1C` (stereo unspecified), the inhibition is -7.5% (inactive).

On to `O=C1CC(N2CCN(Cc3ccc4c(c3)OCO4)CC2)C(=O)N1Cc1ccc(N2CCCC2=O)cc1` (stereo unspecified), for which the inhibition was -5.2% (inactive).

For `Cn1cc([N+](=O)[O-])c(C(=O)Nc2ccc3c(c2)OCCO3)n1`, the inhibition is 10.7% (inactive).

`Cc1ccc(OCc2ccoc2C(=O)O)cc1C`: the inhibition was 2.2% (inactive).

Consider `Cc1nn(-c2cc(C)c3ccccc3n2)c2c1C1C(C2)C1(C)C` (stereo unspecified), for which the inhibition was -11.4% (inactive).

Regarding `O=C(CCCCCN1C(=O)c2ccccc2C1=O)Nc1nccs1`, the inhibition was -4.8% (inactive).

Turning to `COc1ccc(S(=O)(=O)NC(CC(=O)NCc2ccco2)C(C)C)cc1` (stereo unspecified), the inhibition was 4.6% (inactive).

For `C=CC(=O)Nc1ccc(Br)cc1`, the inhibition was -8.4% (inactive).

Take `CCn1c(CN2CCN(c3ccc(Cl)cc3)CC2)nc2ccccc21`: the inhibition is 23.2% (inactive).

`O=C(NC1CC1)c1ccc(S(=O)(=O)NCC2CCCCC2)cc1`: the inhibition is 7.4% (inactive).

As to `O=C(C1CCC1)N1CCc2cc(S(=O)(=O)Nc3ccc4c(c3)OCCO4)ccc21`, the inhibition is -2.3% (inactive).

In the case of `O=C(c1ccc2c(c1)ncn2C1CCCCC1)N1CCC2(CC1)OCCO2`, the inhibition was 4.9% (inactive).

Take `CS(=O)(=O)N(CC(=O)NCc1ccccc1Cl)Cc1ccccc1`: the inhibition was -0.5% (inactive).

On to `N#CCc1nc2c3c4c(sc3ncn2n1)CCCC4`, for which the inhibition was 62.9% (inactive).

As to `O=C1Nc2ccc(S(=O)(=O)N3CCOCC3)c3cccc1c23`, the inhibition was -7.2% (inactive).

`Cc1cc(C(=O)NN=C2C3CC4CC(C3)CC2C4)c2ccccc2n1`: the inhibition is -1.3% (inactive).

On to `Cc1cc(C)cc(NC(=O)CC2NCCNC2=O)c1` (stereo unspecified), for which the inhibition was 7.4% (inactive).

In the case of `COc1cc(NC(=O)c2ccc(COCC(F)(F)F)o2)cc(OC)c1OC`, the inhibition was 20.7% (inactive).

For `Nc1cc(=O)nc(SCc2ccccc2)n1Cc1ccco1`, the inhibition was 7% (inactive).

Regarding `CCOc1cc(NC(=O)c2ccco2)c(OCC)cc1NC(=O)CCC(=O)NCc1cccnc1`, the inhibition is 3.7% (inactive).

The same experiment, now with this note: TNFa-stimulated cells, VCAM1 expression imaging; cell count; at 10 µM; stronger effect = lower value.
`N=c1c2c(-c3ccccc3)c(-c3ccccc3)n(Cc3ccccc3)c2ncn1CCCn1ccnc1` came in with a cell count of 56.8%.

Compound `CCC(C)[C@@H](NC(=O)OC(C)(C)C)c1nnc(S(=O)(=O)Cc2cccc(C)c2)o1` (stereo partly specified) showed a cell count of 95.6%.

In turn, `Cc1ccc(O)c(NC(=O)CCC2CCCCC2)c1` displayed a cell count of 113%.

Compound `CC[C@@H](C)[C@H](NC(=O)OC(C)(C)C)c1nnc(S(=O)(=O)Cc2cc(C)ccc2C)o1` had a cell count of 117%.

Compound `CCOC(=O)c1[nH]c(C)c(C(=O)N2CCc3ccccc32)c1C` returned a cell count of 61.8%.

For the compound `CCN(CC)c1ccc(-c2nn3c(-c4ccccc4OC)nnc3s2)cc1`, the cell count was determined as 31.6%.

`O=C(N/N=C/C(Br)=C\c1ccccc1)c1n[nH]c2c1CCC2` returned a cell count of 29.2%.

In turn, `Cc1ccc(Cl)cc1NC1=C/C(=N\S(=O)(=O)c2cccs2)c2ccccc2C1=O` displayed a cell count of 123%.

For the compound `OCCN=C1CCCc2c1[nH]c1ccc(Br)cc21`, the cell count is 76.3%.

Take `COc1ccccc1-n1cnc2cc(NCc3ccco3)ccc21`: the cell count was 41.8%.

On to `N#CCc1nc2c3c4c(sc3ncn2n1)CCCC4`, for which the cell count was found to be 87.3%.

The next experiment concerns TNFa-stimulated cells, VCAM1 expression imaging. Described as above.
Settings: not given
Turning to `N=c1c2c(-c3ccccc3)c(-c3ccccc3)n(Cc3ccccc3)c2ncn1CCCn1ccnc1`, the IC50 is 1060 nM.

Take `CCC(C)[C@@H](NC(=O)OC(C)(C)C)c1nnc(S(=O)(=O)Cc2cccc(C)c2)o1` (stereo partly specified): the IC50 was > 10000 nM (inactive).

As for `Cc1ccc(O)c(NC(=O)CCC2CCCCC2)c1`, the IC50 was > 10000 nM (inactive).

With `Cc1ccc(C(=O)OCn2ncc(Cl)c(Cl)c2=O)cc1`, the IC50 was 2300 nM.

For `CC[C@@H](C)[C@H](NC(=O)OC(C)(C)C)c1nnc(S(=O)(=O)Cc2cc(C)ccc2C)o1`, the IC50 was > 10000 nM (inactive).

With `CCOC(=O)c1[nH]c(C)c(C(=O)N2CCc3ccccc32)c1C`, the 50% inhibitory concentration (IC50) is 778 nM.

On to `CCN(CC)c1ccc(-c2nn3c(-c4ccccc4OC)nnc3s2)cc1`, for which the 50% inhibitory concentration (IC50) was 2970 nM.

Regarding `O=C(N/N=C/C(Br)=C\c1ccccc1)c1n[nH]c2c1CCC2`, the 50% inhibitory concentration (IC50) was 636 nM.

`CCCCCCCCCCn1c2c(c(=N)c3c1CCC3)CCC2`: the IC50 is 550 nM.

Turning to `Cc1ccc(Cl)cc1NC1=C/C(=N\S(=O)(=O)c2cccs2)c2ccccc2C1=O`, the IC50 was > 10000 nM (inactive).

In the case of `OCCN=C1CCCc2c1[nH]c1ccc(Br)cc21`, the IC50 is 150 nM.

For `COc1ccccc1-n1cnc2cc(NCc3ccco3)ccc21`, the IC50 is > 10000 nM (inactive).

A word on the inhibition: it is the change of the read-out against control, counted positive when it falls. As usually defined, the IC50 is the point on the concentration scale where inhibition reaches its midpoint.

Values taken from PubChem BioAssay AID1013 (Columbia University Molecular Screening Center, 2008).
